We go through two compounds from ChEMBL document CHEMBL4619712, “Double-component diazeniumdiolate derivatives as anti-cancer agents” (Bioorg Med Chem, 2020).

Some results are limits rather than exact numbers.

One data set has as its system MDA-MB-231. The data set is described as follows: Anticancer activity against human MDA-MB-231 cells assessed as inhibition of cell growth after 72 hrs by MTT or MTS assay. The conditions noted are these: MDA-MB-231, 72 h. In kind it is functional, cell-based. A general note: Tetrazolium dyes change colour on reduction, which living cells bring about.
Another data set has as its system A549. The data set is described as follows: Anticancer activity against human A549 cells assessed as inhibition of cell growth after 72 hrs by MTT or MTS assay. In kind it is functional, cell-based. The conditions noted are these: A549, 72 h.
The next data set deals with Jurkat E6.1. The data set is described as follows: Anticancer activity against human Jurkat E6-1 cells assessed as inhibition of cell growth after 72 hrs by MTT or MTS assay. The format is functional, cell-based. The conditions noted are these: Jurkat E6.1, 72 h.
Another data set deals with BT-474. Description: Anticancer activity against human BT474 cells assessed as inhibition of cell growth after 72 hrs by MTT or MTS assay. The format is functional, cell-based. The conditions noted are these: BT-474, 72 h.
The nature of data set [1]: Prodrug conversion assessed as Escherichia coli GST catalyzed NO release at 1 uM measured after 5 hrs in presence of GSH by DAF-FM DA reagent based fluorescence spectrophotometric analysis. In kind it is ADME.
In another data set the test system is CCRF-CEM. The data set is described as follows: Anticancer activity against human CCRF-CEM cells assessed as inhibition of cell growth after 72 hrs by MTT or MTS assay. In kind it is functional, cell-based.

What is called IC50 is the concentration that inhibits the measured activity by half. Consider `O=[N+]([O-])c1ccc(O/N=[N+](\[O-])N2CCN(CCCN3CCN(/[N+]([O-])=N/Oc4ccc([N+](=O)[O-])cc4[N+](=O)[O-])CC3)CC2)c([N+](=O)[O-])c1`, for which the concentration for half-maximal inhibition (IC50) is > 20 µM in the data set on MDA-MB-231; 18.8 µM with A549; 4.06 µM in the data set on Jurkat E6.1; 10.8 µM in the data set on BT-474; 3.73 µM in the data set on CCRF-CEM. In addition, the “fold change (FC)” value in data set [1] is 2.
In the case of `O=[N+]([O-])c1ccc(O/N=[N+](\[O-])N2CCN(CCN3CCN(/[N+]([O-])=N/Oc4ccc([N+](=O)[O-])cc4[N+](=O)[O-])CC3)CC2)c([N+](=O)[O-])c1`, the concentration for half-maximal inhibition (IC50) with MDA-MB-231 was determined as 17.6 µM; in the data set on A549, 17.1 µM; in the data set on Jurkat E6.1 it was 3.71 µM; in the data set with BT-474 it was 10.7 µM; with CCRF-CEM it was 2.64 µM. In data set [1], the “fold change (FC)” value came to 2.
